Assay results published in patent publication EP0442757A2, “Therapeutic nucleosides” (THE WELLCOME FOUNDATION LIMITED, priority 1990, dated 1991).

Key:
Assay type in all cases: cell-based
[1] = tested on: HIV-1; experiment: HeLa-CD4+ cell assay (plaque reduction in HT4-6C cell monolayers); settings: Human immunodeficiency virus 1, plaque reduction after 2-3 days, method calls the value ID50
Method: Susceptibility of HIV to inhibitors was determined by infection of HT4-6C cell monolayers as described by Larder, B.A., Chesebro, B. & Richman, D.D. Antimicrob. Agents Chemother. 1990 34, 436-441. Briefly cells were seeded in 24-well multiwells at 5x10⁴ cells per well and incubated overnight at 37°C in growth medium (DMEM10). Monolayers were infected with 100-200pfu of cell-free virus in 0.2ml of DMEM containing 5% fetal bovine serum plus antibiotics (DMEM5) and incubated for 1 hour at 37°C to allow virus adsorption. Following this time, 0.8ml of DMEM5 (with or without inhibitor) was added to each well and cultures were incubated at 37°C for 2-3 days. Monolayers were fixed with 10% formaldehyde solution in PBS and stained with 0.25% crystal violet in order to visualize virus plaques. Individual foci of multinucleated gian cells (plaques) were apparent using this staining procedure. ID₅₀ values were derived from plots of percent plaque reduction versus inhibitor concentration.

[2] = Cell toxicity, cell growth inhibition assay (MTT uptake); settings: CCID-50: 50% inhibition of cell viability at 5 days; uninfected MT4 cells or vero cells (not stated which); read-out: TOX
Method: Cell toxicity was assessed in a cell growth inhibition assay on uninfected MT4 cells or on vero cells in a 96-well microtiter dish. Identical cell numbers of uninfected cells were exposed to different dilutions of drug and cell viability determined daily on replicate cultures using uptake of MTT. The concentration required for a 50% inhibition of cell viability at 5 days is termed CCID-50.

[3] = tested on: HIV-1; experiment: Antiviral MT4 assay (reversal of HIV cytopathic effect, MTT uptake); settings: MTT uptake at fifth day post infection, several values per cell, read-out: IC50 vs HIV-1 (μM) MT-4 (converted)
Method: Antiviral activity against the Human Immunodeficiency Virus (HIV) was determined according to the method of Pauwels et al, J.Virol.Methods, 1988 20 309-321 by measuring the ability of the compound to reverse the cytopathic effect of HIV infection. This was determined by a quantitative assessment of cell growth monitored at the fifth day post infection by a tetrazolium dye (MTT) uptake test. Subconfluent (20-40,000 cells/well) human T lymphocyte cell line MT4 cells infected with HIV were grown in 96-well microtiter dishes and exposed to different dilutions of drug. After 5 days, the dye intake test was performed on drug treated cultures and on HIV infected and mock infected MT4 cells. Under the conditions of the test, HIV infection caused extensive cytopathic effect and prevented cell growth by >80%. The antiviral effect of a drug is reported as an IC-50, i.e. as the inhibitory concentration that would protect 50% of the cells from cell killing, measured as 50% of that cell growth determined for uninfected MT4 cell controls.

[4] = tested on: HIV-1; experiment: PBL assay (P24 capsid antigen ELISA in human peripheral blood lymphocytes); settings: human PBL's stimulated with IL2 and PHA, P24 ELISA after 4 days incubation at 37°C, several values per cell
Method: HIV assays were carried out in human peripheral blood lymphocytes (PBL's) prepared by fractionation of fresh human […] on Ficoll gradients as described by Hartmann H. et al. Aids Research and Human Retroviruses, 1988, 4 457-466. The isolated PBL's were stimulated with growth factors IL2 and PHA for 3 days before infection with HIV. Growth of virus was monitored, after 4 days incubation at 37°C, by quantitative ELISA assays of the capsid antigen, P24. A range of concentrations of compound of known molarity was incorporated into the medium. Yield of P24 at each concentration are expressed as a percentage of the control and a dose response curve is drawn. From this curve the 50% inhibitory concentration (IC50) is estimated.

[5] = Human immunodeficiency virus 1, Lymphocyte, 96 h

Structure (SMILES) | IC50 [1] [µM] | CC50 at 120 h [2] [µM] | IC50 ([3]; Human immunodeficiency virus 1, MT4, MT4 cells infected with HIV) [µM] | IC50 ([3]; MT4 cells infected with HIV) [µM] | IC50 [4, 5] [µM] | IC50 [4] [µM]
CSCc1cn([C@H]2C[C@H](F)[C@@H](CO)O2)c(=O)[nH]c1=O [2′,3′-Dideoxy-3′-fluoro-5-methylthiomethyluridine] | 4.2 | > 200 |  |  |  | 
COCc1cn([C@H]2C[C@H](F)[C@@H](CO)O2)c(=O)[nH]c1=O [2′,3′-Dideoxy-3′-fluoro-5-methoxymethyluridine] | 11.9 | > 500 | 8.4 | 6.4 | 1.89 | 
CCOCc1cn([C@H]2C[C@H](F)[C@@H](CO)O2)c(=O)[nH]c1=O [2′,3′-Dideoxy-5-ethoxymethyl-3′-fluorouridine] | 6.3 | > 200 |  |  | 1.52 | 1.63
